Usually EC50 stands for the concentration at which the effect is half-maximal.

Assay [1] concerns the target T1, CFTR in F508del/F508del primary CF hBE cells (Homo sapiens, UniProt P13569, DEL508-508).
T1 construct: Primary cystic fibrosis human bronchial epithelial (CF hBE) cells were expanded and cultured; endogenous in cells; host or cells: primary CF human bronchial epithelial cells, genotype F508del/F508del
Description: Ussing chamber electrophysiology assay of CFTR potentiation in F508del/F508del CF bronchial epithelial cells (27° C.). In kind it is cell-based. An outline of the steps:
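Well-differentiated primary CF hBE cells (>30 days air/liquid interface) in Ussing chambers, HEPES saline both sides, voltage clamped to zero. Amiloride 30 uM, forskolin 10 uM, four rising compound concentrations, then CFTRinh-172 20 uM added at 20-25 min intervals. Short-circuit current scaled to DMSO (0%) and a positive control potentiator maximum (100%).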

Assay [2] deals with T2, recombinant F508del V470 CFTR in Fischer rat thyroid (FRT) cells (Homo sapiens, UniProt P13569, DEL508-508).
T2 construct: expressed in transfected cells
T2 sequence (P13569 with tags, fused parts or gaps DEL508-508): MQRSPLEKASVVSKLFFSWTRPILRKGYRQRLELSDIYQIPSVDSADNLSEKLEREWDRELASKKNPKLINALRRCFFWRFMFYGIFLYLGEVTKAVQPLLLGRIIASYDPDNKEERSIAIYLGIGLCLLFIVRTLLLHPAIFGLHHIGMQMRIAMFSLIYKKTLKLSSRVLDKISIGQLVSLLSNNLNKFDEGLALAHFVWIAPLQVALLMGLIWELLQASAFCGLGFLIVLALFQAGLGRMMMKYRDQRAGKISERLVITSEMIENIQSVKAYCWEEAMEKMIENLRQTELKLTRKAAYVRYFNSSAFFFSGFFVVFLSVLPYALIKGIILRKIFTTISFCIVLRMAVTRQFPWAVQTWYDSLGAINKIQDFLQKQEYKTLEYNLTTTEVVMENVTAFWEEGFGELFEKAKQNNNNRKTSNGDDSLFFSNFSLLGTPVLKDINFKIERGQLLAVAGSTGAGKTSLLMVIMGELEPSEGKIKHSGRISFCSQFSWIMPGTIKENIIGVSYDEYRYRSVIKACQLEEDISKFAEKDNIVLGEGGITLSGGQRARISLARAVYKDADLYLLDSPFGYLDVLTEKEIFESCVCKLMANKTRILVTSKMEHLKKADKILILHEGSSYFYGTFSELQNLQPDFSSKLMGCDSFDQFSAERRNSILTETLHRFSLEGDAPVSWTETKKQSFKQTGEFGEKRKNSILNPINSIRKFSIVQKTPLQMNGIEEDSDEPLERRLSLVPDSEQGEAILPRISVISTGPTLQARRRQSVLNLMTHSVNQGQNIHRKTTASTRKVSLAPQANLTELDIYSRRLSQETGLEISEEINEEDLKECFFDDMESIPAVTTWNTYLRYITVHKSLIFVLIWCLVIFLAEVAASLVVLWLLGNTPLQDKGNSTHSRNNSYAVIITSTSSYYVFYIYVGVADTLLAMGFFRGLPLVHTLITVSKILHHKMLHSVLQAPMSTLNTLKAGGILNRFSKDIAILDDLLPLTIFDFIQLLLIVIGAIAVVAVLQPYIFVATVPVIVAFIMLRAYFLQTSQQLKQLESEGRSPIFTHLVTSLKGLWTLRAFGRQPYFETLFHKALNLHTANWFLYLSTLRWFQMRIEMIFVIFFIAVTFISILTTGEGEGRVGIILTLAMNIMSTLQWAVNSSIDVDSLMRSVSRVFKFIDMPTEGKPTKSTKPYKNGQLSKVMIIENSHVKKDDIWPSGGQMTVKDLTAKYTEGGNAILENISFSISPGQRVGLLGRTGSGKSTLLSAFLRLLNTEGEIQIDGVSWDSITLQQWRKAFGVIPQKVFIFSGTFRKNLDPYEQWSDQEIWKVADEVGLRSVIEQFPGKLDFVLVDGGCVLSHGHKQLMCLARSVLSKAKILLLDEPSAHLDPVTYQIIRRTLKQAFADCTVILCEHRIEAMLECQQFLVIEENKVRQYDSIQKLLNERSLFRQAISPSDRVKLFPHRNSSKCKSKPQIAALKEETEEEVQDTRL
Description: FRT ion flux assay of F508del CFTR potentiation. The format is cell-based. The conditions noted are these: FRT cells expressing F508del V470 CFTR, forskolin 20 uM, 27° C. pre-incubation. An outline of the steps: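 FRT cells co-expressing F508del V470 CFTR and halide-sensitive YFP, temperature-corrected at 27° C for 16-24 h, then treated 30 min with compound plus 20 uM forskolin. Iodide addition quenches YFP, read after ~21 s; ratio scaled to DMSO (0%) and positive control potentiator (100%).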

T1 sequence (P13569 with tags, fused parts or gaps DEL508-508): as above

As to `CCC(c1cn(-c2ccccc2F)nn1)n1cc(-c2cncnc2OC)c2c(N)nc(C)nc21` (single isomer, unassigned; enantiomer 2) [Example 304, (−) 7-{1-[1-(2-fluorophenyl)-1H-1,2,3-triazol-4-yl]propyl}-5-(4-methoxypyrimidin-5-yl)-2-methyl-7H-pyrrolo[2,3-d]pyrimidin-4-amine, enantiomer 2], the results for the EC50 in assay [1] and in assay [2] were 135 nM and 190 nM, respectively.

With `CCC(c1cn(-c2cccc(F)c2F)nn1)n1cc(-c2cncnc2OC)c2c(N)ncnc21` (single isomer, unassigned; enantiomer 2) [Example 306, (+) 7-{1-[1-(2,3-Difluorophenyl)-1H-1,2,3-triazol-4-yl]propyl}-5-(4-methoxypyrimidin-5-yl)-7H-pyrrolo[2,3-d]pyrimidin-4-amine, enantiomer 2], the EC50 came out at 26.1 nM in assay [1] and 22.2 nM in assay [2].

Regarding `CCC(c1cn(-c2cc(F)ccc2F)nn1)n1cc(-c2cncnc2OC)c2c(N)ncnc21` (single isomer, unassigned; enantiomer 2) [Example 308, (−) 7-{1-[1-(2,5-Difluorophenyl)-1H-1,2,3-triazol-4-yl]propyl}-5-(4-methoxypyrimidin-5-yl)-7H-pyrrolo[2,3-d]pyrimidin-4-amine, enantiomer 2], the EC50 in assay [1] is 430 nM; in assay [2], 362 nM.

Consider `CCC(c1cn(-c2cc(F)cc(F)c2)nn1)n1cc(-c2cnc(C(F)(F)F)nc2)c2c(N)ncnc21` (single isomer, unassigned; enantiomer 2) [Example 312, 7-{1-[1-(3,5-Difluorophenyl)-1H-1,2,3-triazol-4-yl]propyl}-5-[2-(trifluoromethyl)pyrimidin-5-yl]-7H-pyrrolo[2,3-d]pyrimidin-4-amine, enantiomer 2], for which the EC50 in assay [1] came to 279 nM; in assay [2] it was 1020 nM.

As for `CCC(c1cn(-c2ccc(F)c(F)c2)nn1)n1cc(-c2cnc(C(F)F)nc2)c2c(N)ncnc21` (single isomer, unassigned; enantiomer 2) [Example 313, 5-[2-(Difluoromethyl)pyrimidin-5-yl]-7-{1-[1-(3,4-difluorophenyl)-1H-1,2,3-triazol-4-yl]propyl}-7H-pyrrolo[2,3-d]pyrimidin-4-amine, enantiomer 2], the results for the EC50 in assay [1] and in assay [2] were 131 nM and 74.9 nM, respectively.

For `CCC(c1cn(-c2ccccc2F)nn1)n1cc(C2CC2)c2c(N)ncnc21` (single isomer, unassigned; enantiomer 2) [Example 316, (+) 5-Cyclopropyl-7-{1-[1-(2-fluorophenyl)-1H-1,2,3-triazol-4-yl]propyl}-7H-pyrrolo[2,3-d]pyrimidin-4-amine, enantiomer 2], the EC50 in assay [1] worked out at 541 nM; in assay [2], 754 nM.

Take `CC(c1cn(-c2ccc(F)cc2F)nn1)n1c(C#N)c(-c2ccc(OC3CC3)nc2)c2c(N)ncnc21` (single isomer, unassigned; enantiomer 2) [Example 321, 4-Amino-5-[6-(cyclopropyloxy)pyridin-3-yl]-7-{1-[1-(2,4-difluorophenyl)-1H-1,2,3-triazol-4-yl]ethyl}-7H-pyrrolo[2,3-d]pyrimidine-6-carbonitrile, enantiomer 2]: the values for the EC50 in assay [1] and in assay [2] were 141 nM and 359 nM, respectively.

Take `CC(C)n1cc(Cn2c(C#N)c(-c3ccc(Cl)cc3)c3c(N)ncnc32)cn1` [Example 25, 4-Amino-5-(4-chlorophenyl)-7-{[1-(propan-2-yl)-1H-pyrazol-4-yl]methyl}-7H-pyrrolo[2,3-d]pyrimidine-6-carbonitrile]: the results for the EC50 in assay [1] and in assay [2] were 41 nM and 95.9 nM, respectively.

On to `N#Cc1c(-c2ccc(Cl)cc2)c2c(N)ncnc2n1Cc1cn(-c2ccccc2F)nn1` [Example 26, 4-Amino-5-(4-chlorophenyl)-7-{[1-(2-fluorophenyl)-1H-1,2,3-triazol-4-yl]methyl}-7H-pyrrolo[2,3-d]pyrimidine-6-carbonitrile], for which the EC50 in assay [1] amounted to 35.7 nM; in assay [2], 130 nM.

As to `N#Cc1c(-c2cnc(C(F)(F)F)nc2)c2c(N)ncnc2n1Cc1cnn(-c2ccc(F)cc2F)c1` [Example 29, 4-Amino-7-{[1-(2,4-difluorophenyl)-1H-pyrazol-4-yl]methyl}-5-[2-(trifluoromethyl)pyrimidin-5-yl]-7H-pyrrolo[2,3-d]pyrimidine-6-carbonitrile], the results for the EC50 in assay [1] and in assay [2] were 2.24 nM and 2.33 nM, respectively.

With `N#Cc1c(-c2cnc(C(F)F)nc2)c2c(N)ncnc2n1Cc1cnn(-c2ccccc2F)c1` [Example 30, 4-Amino-5-[2-(difluoromethyl)pyrimidin-5-yl]-7-{[1-(2-fluorophenyl)-1H-pyrazol-4-yl]methyl}-7H-pyrrolo[2,3-d]pyrimidine-6-carbonitrile], the EC50 in assay [1] was 2.03 nM; in assay [2], 0.59 nM.

As to `N#Cc1c(-c2cnc(C(F)(F)F)nc2)c2c(N)ncnc2n1Cc1cn(-c2ccccc2F)nn1` [Example 37], the values for the EC50 in assay [1] and in assay [2] were 16.3 nM and 13.5 nM, respectively.

Regarding `Nc1ncnc2c1c(-c1cnc(C(F)(F)F)nc1)c(Br)n2Cc1cnn(-c2ccccc2F)c1` [Example 40, 6-bromo-7-{[1-(2-fluorophenyl)-1H-pyrazol-4-yl]methyl}-5-[2-(trifluoromethyl)pyrimidin-5-yl]-7H-pyrrolo[2,3-d]pyrimidin-4-amine], the values for the EC50 in assay [1] and in assay [2] were 1.3 nM and 2.18 nM, respectively.

Consider `Nc1ncnc2c1c(-c1cnc(C(F)(F)F)nc1)cn2Cc1cnn(-c2ccccc2F)c1` [Example 57, 7-((1-(2-fluorophenyl)-1H-pyrazol-4-yl)methyl)-5-(2-(trifluoromethyl)pyrimidin-5-yl)-7H-pyrrolo[2,3-d]pyrimidin-4-amine], for which the EC50 in assay [1] worked out at 65.9 nM; in assay [2], 28.8 nM.

Turning to `CC(c1cn(-c2ccccc2F)nn1)n1cc(-c2ccc(Cl)cc2)c2c(N)ncnc21` (stereo not drawn) [Example 58, 5-(4-Chlorophenyl)-7-{1-[1-(2-fluorophenyl)-1H-1,2,3-triazol-4-yl]ethyl}-7H-pyrrolo[2,3-d]pyrimidin-4-amine], the EC50 in assay [1] worked out at 28.9 nM; in assay [2], 232 nM.

Take `COc1ccc(-c2cn(C(C)c3cnc(-c4ccccc4F)[nH]3)c3ncnc(N)c23)c(F)c1` (stereo not drawn) [Example 59, 5-(2-Fluoro-4-methoxyphenyl)-7-{1-[2-(2-fluorophenyl)-1H-imidazol-5-yl]ethyl}-7H-pyrrolo[2,3-d]pyrimidin-4-amine]: the concentration giving a half-maximal response (EC50) in assay [1] amounted to 32 nM; in assay [2], 195 nM.

For the compound `CC(c1cnc(-c2ccccc2F)[nH]1)n1cc(-c2cc[nH]n2)c2c(N)ncnc21` (stereo not drawn) [Example 60, 7-{1-[2-(2-Fluorophenyl)-1H-imidazol-5-yl]ethyl}-5-(1H-pyrazol-3-yl)-7H-pyrrolo[2,3-d]pyrimidin-4-amine], the values for the EC50 in assay [1] and in assay [2] were 80 nM and 45.3 nM, respectively.

Consider `CC(c1cnc(-c2ccccc2F)[nH]1)n1cc(-c2ccc(C(F)(F)F)nc2)c2c(N)ncnc21` (stereo not drawn) [Example 64, 7-{1-[2-(2-Fluorophenyl)-1H-imidazol-5-yl]ethyl}-5-[6-(trifluoromethyl)pyridin-3-yl]-7H-pyrrolo[2,3-d]pyrimidin-4-amine], for which the EC50 in assay [1] is 80.3 nM; in assay [2] it was 80 nM.

Take `CC(c1cnc(-c2ccccc2F)[nH]1)n1cc(-c2ccc3[nH]ncc3c2)c2c(N)ncnc21` (stereo not drawn) [Example 66, 7-{1-[2-(2-Fluorophenyl)-1H-imidazol-5-yl]ethyl}-5-(1H-indazol-5-yl)-7H-pyrrolo[2,3-d]pyrimidin-4-amine]: the values for the EC50 in assay [1] and in assay [2] were 1320 nM and 573 nM, respectively.

Regarding `CC(c1cnc(-c2ccccc2F)[nH]1)n1cc(-c2cnc(N(C)C)nc2)c2c(N)ncnc21` (stereo not drawn) [Example 67, 5-[2-(Dimethylamino)pyrimidin-5-yl]-7-{1-[2-(2-fluorophenyl)-1H-imidazol-5-yl]ethyl}-7H-pyrrolo[2,3-d]pyrimidin-4-amine], the EC50 in assay [1] was 142 nM; in assay [2], 54.6 nM.

Take `Cc1ccc(-c2cn(C(C)c3cnc(-c4ccccc4F)[nH]3)c3ncnc(N)c23)cc1F` (stereo not drawn) [Example 68, 5-(3-Fluoro-4-methylphenyl)-7-{1-[2-(2-fluorophenyl)-1H-imidazol-5-yl]ethyl}-7H-pyrrolo[2,3-d]pyrimidin-4-amine]: the EC50 in assay [1] came to 26.1 nM; in assay [2] it was 112 nM.

On to `CC(c1cnc(-c2ccccc2F)[nH]1)n1cc(-c2ccc(-n3nccn3)cc2)c2c(N)ncnc21` (stereo not drawn) [Example 70, 7-{1-[2-(2-Fluorophenyl)-1H-imidazol-5-yl]ethyl}-5-[4-(2H-1,2,3-triazol-2-yl)phenyl]-7H-pyrrolo[2,3-d]pyrimidin-4-amine], for which the half-maximal effective concentration (EC50) in assay [1] amounted to 30.6 nM; in assay [2] it was 110 nM.

Turning to `COc1cc(C#N)cc(-c2cn(Cc3cn(-c4ccccc4F)nn3)c3ncnc(N)c23)c1` [Example 72, 3-(4-Amino-7-{[1-(2-fluorophenyl)-1H-1,2,3-triazol-4-yl]methyl}-7H-pyrrolo[2,3-d]pyrimidin-5-yl)-5-methoxybenzonitrile], the EC50 in assay [1] was found to be 57 nM; in assay [2], 186 nM.

Take `Nc1ncnc2c1c(-c1ccc3c(c1)CCO3)cn2Cc1cn(-c2ccccc2F)nn1` [Example 74, 5-(2,3-Dihydro-1-benzofuran-5-yl)-7-{[1-(2-fluorophenyl)-1H-1,2,3-triazol-4-yl]methyl}-7H-pyrrolo[2,3-d]pyrimidin-4-amine]: the EC50 came out at 59 nM in assay [1] and 328 nM in assay [2].

Source of the values: patent US12612409B2, “Pyrrolopyrimidines as CFTR potentiators” (Cystic Fibrosis Foundation, priority 2016, dated 2026).
